Columns and labels:
[1] = Patient with class 4 congestive heart failure (Example I); assay type: in vivo, human
Procedure: A person with class 4 congestive heart failure enters the hospital with shortness of breath and bradyacardia. […] The patient is subsequently switched to IV dobutamine at 10 μg per kg per minute titrated to cardiac output. Over the following three days the drug is increased to 30 μg per kg per minute to maintain cardiac output. […] The patient undergoes bypass surgery and does well even though they have been viewed as at high risk.

heart muscle = assay: Ratio of heart weight to body weight after 1 week continuous infusion; assay type: in vivo; conditions: mice, FIG. 1
Procedure: Mice were treated with 10/ng/kg/day of GSNO, or with PBS (control) or with isoproterenol (at a dosage of 30 mg/kg/day) or with 10 mg/kg/day of GSNO plus 30 mg/kg/day isoproterenol, infused continuously for 1 week. The animals were sacrificed and the hearts were weighed and a ratio of heart weight to body weight was determined for each case. The results are set forth in FIG. 1 where hw:bw, i.e., the legend on the vertical axis, is the ratio of heart weight to total body weight and “ISO” means isoproterenol. […] The increase in size of heart (hypertrophy) is an advantage especially in the case of a patient on a left ventricular heart assist device awaiting heart transplant and in the case of a patient who has had heart surgery and cannot be disconnected from a heart pump without loss of heart function. The asterisks in FIG. 1 mean […] compared to control.

[2] = Heroine addict, dose tapering, withdrawal symptoms (Example V); assay type: in vivo, human; conditions: ethyl nitrite intravenously 2 nmol per kg per minute
Text: A heroine addict enters a clinic where their dose is tapered gradually. In order to avoid symptoms of withdrawal, ethyl nitrite is started intravenously at 2 nmol per kg per minute and symptoms of withdrawal, including sweats and shaking, are ameliorated.

GRK = GRK phosphorylation of a synthetic peptide substrate with 32P-ATP (isolated system); assay type: biochemical; conditions: 500 μM, 50 μM, 5 μm, FIG. 3
Procedure: An isolated system was provided consisting of medium, GRK, standard synthetic peptide substrate and radiolabeled ^32P-adenosine triphosphate, i.e., ^32P-ATP, as a source of phosphate. Runs were carried out on the system without additives, and with 500 μM glutathione (GSH) present and with GSNO (500 μM) present or with GSNO (50 μM) present or with GSNO (5 μm) present. The amount of bound ^32P was measured in counts per minute (CPM).

[3] = Patient with cystic fibrosis, shortness of breath (Example VI); assay type: in vivo, human; conditions: inhaled GSNO 3 cc of a 10 mM solution, pH 7, 4×/day
Procedure: A person with cystic fibrosis enters the hospital complaining of shortness of breath. […] They are started on inhaled GSNO (3 cc of a 10 mM solution, pH 7, 4×/day).

β-adrenergic receptor = assay: Saturation binding with radiolabeled I125-cyanopindolol in purified cardiac membrane of treated mice; assay type: in vivo; conditions: GSNO 10 ng/kg/day plus isoproterenol 30 mg/kg/day for 7 days
Procedure: Mice were treated with 10 ng/kg/day of GSNO or PBS infused continuously for 1 week through an azlet miniosmotic pump placed subcutaneously. Another set of mice was treated for 7 days with isoproterenol (30 mg/kg/day), and the fourth and final group received for 7 days, isoproterenol (30 mg/kg/day) plus GSNO (10 ng/kg/day). The mice were sacrificed and heart tissue was removed.

[4] = Patient with metastatic prostate cancer, bone pain unresponsive to opiates (Example IV); assay type: in vivo, human; conditions: intravenous GSNO 10 nmol per kg per minute in conjunction with morphine
Text: A person with metastatic prostate cancer is suffering from severe bone pain unresponsive to opiates.

**Q.** Which “symptoms (shortness of breath, bradyacardia)” value ([1]; intravenous isoproterenol 10 μg per minute) does the source give for `CC(C)NCC(O)c1ccc(O)c(O)c1` (stereo not shown) [isoproterenol, reference compound] here?
**A.** resolution of symptoms

**Q.** What about the “size of heart muscle (hw:bw, ratio of heart weight to total body weight)” value (heart muscle; isoproterenol 30 mg/kg/day infused continuously 1 week) of the same compound?
**A.** increased the size of the heart muscle

**Q.** With `CCON=O` [ethyl nitrite] as the compound, how does the symptoms of withdrawal [2] read?
**A.** ameliorated

**Q.** Which “incorporation of 32P into synthetic peptide substrate (bound 32P, CPM)” value (GRK) does the source give for `N[C@@H](CSN=O)C(=O)O` [S-nitroso-cysteine] here?
**A.** same result of GRK inhibition and interference with substrate phosphorylation

**Q.** What does the source list for `N[C@@H](CCC(=O)N[C@@H](CSN=O)C(=O)NCC(=O)O)C(=O)O` [GSNO, S-nitrosoglutathione]?
**A.** FEV1, acute change [3]: does not change acutely; FEV1 over the following 48 hours [3]: corresponding improvement in FEV1; symptoms of shortness of breath ([3]; following 48 hours): resolve over the following 48 hours; incorporation of 32P into synthetic peptide substrate (bound 32P, CPM) (GRK): concentration dependent reduction in incorporation of ^32P; cardiac output ([1]; IV GSNO 2 nmol per kg per minute, on dobutamine 30 μg per kg per minute): cardiac output improved over the following 24 hours; amount of β-adrenergic receptor (β-adrenergic receptor): 90 fmol per mg protein; size of heart muscle (hw:bw, ratio of heart weight to total body weight) (heart muscle; 10 mg/kg/day of GSNO plus 30 mg/kg/day isoproterenol infused continuously 1 week): even more effect in increasing size of heart muscle; size of heart muscle (hw:bw, ratio of heart weight to total body weight) (heart muscle; GSNO 10/ng/kg/day infused continuously 1 week): increases the size of the heart muscle; bone pain [4]: now relieves their pain
